Test results: PubChem BioAssay AID504526 (Southern Research Specialized Biocontainment Screening …, 2011)
Values joined by “and” are separate entries in the source; they are usually repeats but may differ in a detail not shown here. Equal values may be shown once. Active and inactive are the calls of the source. How the calls were made is not given here.

Each compound was assayed on RSV-infected cells, CPE inhibition (cell viability) (assay: inhibition of RSV-induced host cell death – synthesized compounds, set 6, dose response (AID 504526)).
For `COCCCNC(=O)c1ccc(Cn2c(=O)c3ccccc3n(Cc3ccccc3)c2=O)cc1`, the IC50 was > 50 µM (inactive).
In the case of `Cc1ccc(C(C)(C)C)cc1NC(=O)[C@@H]1CCCN1S(=O)(=O)c1cccc2cccnc12`, the IC50 is reported as > 50 µM (inactive).
For `Cc1ccc(C(C)C)cc1NC(=O)[C@@H]1CCCN1S(=O)(=O)c1cccc2cccnc12`, the IC50 was > 50 µM (inactive).
In the case of `COc1ccccc1CNC(=O)C1CCN(S(=O)(=O)c2cccc3scnc23)CC1`, the IC50 is reported as > 50 µM (inactive).
Compound `Cc1ccc(Cl)cc1NC(=O)[C@@H]1CCCN1S(=O)(=O)c1cccc2cccnc12` has an IC50 of 0.22 µM.
With `COc1ccccc1CNC(=O)[C@@H]1CCCN1S(=O)(=O)c1cccc2cccnc12` the IC50 was 18.8 µM.
With `COc1ccccc1CNC(=O)C1CCN(S(=O)(=O)c2cccc3nonc23)CC1` the IC50 was 3.6 µM and 4.7 µM.
`Cc1ccc(Cl)c(NC(=O)[C@@H]2CCCN2S(=O)(=O)c2cccc3cccnc23)c1` was tested, and the IC50 was > 50 µM (inactive).
With `Cc1ccc(C(F)(F)F)cc1NC(=O)[C@@H]1CCCN1S(=O)(=O)c1cccc2cccnc12` the IC50 was > 50 µM (inactive).
For `COc1ccc(C)c(NC(=O)[C@@H]2CCCN2S(=O)(=O)c2cccc3cccnc23)c1`, the IC50 was 3.51 µM.
With `COCCCNC(=O)c1ccc(Cn2c(=O)c3ccc(Cl)cc3n(Cc3ccc(C)cc3)c2=O)cc1` the IC50 was > 50 µM (inactive).
With `O=C(O)C1CC=CCC1C(=O)Nc1ccc(S(=O)(=O)N2CCCc3ccccc32)cc1` (centres undefined) the IC50 was 31.4 µM.
`O=C(NCc1ccccc1Cl)C1CCN(S(=O)(=O)c2cccc3nonc23)CC1` was tested, and the IC50 was 6.9 µM.
Compound `Cc1ccc(C)c(NC(=O)[C@@H]2CCCN2S(=O)(=O)c2cccc3cccnc23)c1` has an IC50 of 5.1 µM.
In the case of `COc1ccccc1NCC(=O)Nc1cc(S(=O)(=O)N2CCOCC2)ccc1N1CCOCC1`, the IC50 is reported as > 50 µM (inactive).
For `COc1ccc(C)cc1NC(=O)[C@@H]1CCCN1S(=O)(=O)c1cccc2cccnc12`, the IC50 was > 50 µM (inactive).
With `COc1ccccc1CNC(=O)C1CCN(S(=O)(=O)c2cccc3cccnc23)CC1` the IC50 was > 50 µM (inactive).
`COc1ccccc1CNC(=O)C1CCN(Cc2cccc3nonc23)CC1` was tested, and the IC50 was > 50 µM (inactive).
Compound `COCCNC(=O)c1ccc(Cn2c(=O)c3ccccc3n(Cc3ccc(C)cc3)c2=O)cc1` has an IC50 of 2.32 µM.
For `Cc1ccccc1CNC(=O)C1CCN(S(=O)(=O)c2cccc3nonc23)CC1`, the IC50 was > 50 µM (inactive).
`COc1ccc(CNC(=O)C2CCN(S(=O)(=O)c3cccc4nonc34)CC2)cc1` was tested, and the IC50 was > 50 µM (inactive).
For `COc1ccccc1CNC(=O)C1CCN(S(=O)(=O)c2ccccc2)CC1`, the IC50 was > 50 µM (inactive).
`Cc1cccc(C)c1NC(=O)[C@@H]1CCCN1S(=O)(=O)c1cccc2cccnc12` was tested, and the IC50 was 34.6 µM.
`COc1cccc(CNC(=O)C2CCN(S(=O)(=O)c3cccc4nonc34)CC2)c1` was tested, and the IC50 was > 50 µM (inactive).
